The assay deals with T1, KRAS G12C 1-169, his-tagged protein, GDP-loaded (Homo sapiens, UniProt P01116, G12C).
T1 construct: KRAS G12C 1-169, his-tagged protein, GDP-loaded
Briefly: Biochemical assay: covalent binding to KRAS G12C analyzed by mass spectrometry. Further: test concentration or dose not given here.

The mark [1] stands for this setting: compounds 1-47, measured at 24 h.
Setting [2] is: compounds 48-246, measured at 2 h.
Where [3] appears, read: compounds 247-342, measured at 30 min.

T1 sequence (P01116 1-169 isoform P01116-2 G12C): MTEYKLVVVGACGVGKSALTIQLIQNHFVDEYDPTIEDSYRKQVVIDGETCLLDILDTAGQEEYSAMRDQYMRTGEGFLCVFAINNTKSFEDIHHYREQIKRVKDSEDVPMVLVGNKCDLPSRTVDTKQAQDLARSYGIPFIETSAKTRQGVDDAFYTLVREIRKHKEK

With `C=CS(=O)(=O)N1CCN(c2ncnc3cc(Cl)c(-c4ccc(Cl)cc4)cc23)CC1` [Compound I-45, 7-chloro-6-(4-chlorophenyl)-4-(4-(vinylsulfonyl)piperazin-1-yl)quinazoline], under setting [1], the Binding % entry was “+ (+indicates binding activity from 5% to 25%)”. On to `C=CC(=O)N1CCN(c2ncnc3cc(-c4ccccc4)c(Cl)cc23)CC1` [Compound I-67, 1-(4-(6-chloro-7-phenylquinazolin-4-yl)piperazin-1-yl)prop-2-en-1-one], for which, under setting [2], the Binding % entry is “+++ (+++indicates binding activity greater than 50% and up to 75%)”. Regarding `C=CC(=O)N1CC(N2CCN(C(=O)Cn3ccc4cc(Cl)c(Cl)cc43)CC2)C1` [II-30, 1-(3-(4-(2-(5,6-dichloro-1H-indol-1-yl)acetyl)piperazin-1-yl)azetidin-1-yl)prop-2-en-1-one], where the note is “determined at 24 hrs”, the Binding % result is given as “+ (+indicates binding activity from 5% to 15%)”. `C=CC(=O)N1CCN(c2ncnc3c(F)c(-c4c(O)ccc5ccccc45)c(Cl)cc23)CC1` [Compound I-235, 1-(4-(6-chloro-8-fluoro-7-(2-hydroxynaphthalen-1-yl)quinazolin-4-yl)piperazin-1-yl)prop-2-en-1-one]: the Binding % entry under setting [2] is “+++ (+++indicates binding activity greater than 50% and up to 75%)”.

On to `C=CC(=O)N1CCN(c2c(C#N)cnc3cc(-c4ccc(F)cc4F)c(Cl)cc23)CC1` [Compound I-172, 4-(4-acryloylpiperazin-1-yl)-6-chloro-7-(2,4-difluorophenyl)quinolin-3-carbonitrile], for which the Binding % entry under setting [2] was “+++ (+++indicates binding activity greater than 50% and up to 75%)”. On to `C=CC(=O)N1CC(N2CCN(C(=O)CNc3cc(Cl)c(F)cc3O)CC2)C1` [II-14, 1-(3-(4-(2-(5-chloro-4-fluoro-2-hydroxyphenyl-amino)acetyl)piperazin-1-yl)azetidin-1-yl)prop-2-en-1-one], for which, where the note is “determined at 24 hrs”, the Binding % result was “+++ (+++indicates binding activity greater than 25% and up to 50%)”.

For the compound `C=CC(=O)N1CCN(c2ncnc3cc(-c4cc(O)c(F)cc4F)c(Cl)cc23)CC1` [Compound I-206, 1-(4-(6-chloro-7-(2,4-difluoro-5-hydroxyphenyl)quinazolin-4-yl)piperazin-1-yl)prop-2-en-1-one], under setting [2], the Binding % result is listed as “++++ (++++indicates binding activity greater than 75%)”. The same measure, in the same setting: the value for `C=CC(=O)N1CCN(c2ncnc3cc(-c4ccccc4F)c(C(F)(F)F)cc23)CC1` [Compound I-150, 1-(4-(7-(2-fluorophenyl)-6-(trifluoromethyl)quinazolin-4-yl)piperazin-1-yl)prop-2-en-1-one] was “++++ (++++indicates binding activity greater than 75%)”. Take `C=CC(=O)N1CCN(c2nc(-c3ccn[nH]3)nc3c(F)c(-c4c(C)ccc5[nH]ncc45)c(Cl)cc23)CC1` [Compound 309, 1-(4-(6-chloro-8-fluoro-7-(5-methyl-1H-indazol-4-yl)-2-(1H-pyrazol-5-yl)quinazolin-4-yl)piperazin-1-yl)prop-2-en-1-one]: the Binding % entry under setting [3] was “+++ (+++indicates binding activity greater than 50% and up to 75%)”. With `C=CC(=O)N1CCN(c2ncnc3cc(-c4c(F)cccc4OC)c(Cl)cc23)CC1` [Compound I-194, 1-(4-(6-chloro-7-(2-fluoro-6-methoxyphenyl)quinazolin-4-yl)piperazin-1-yl)prop-2-en-1-one], under setting [2], the Binding % result is reported as “++++ (++++indicates binding activity greater than 75%)”. On the same count and under the same terms, the value for `C=CC(=O)N1CCN(c2c(C#N)cnc3c(F)c(-c4ccccc4F)c(Cl)cc23)CC1` [Compound I-242, 4-(4-acryloylpiperazin-1-yl)-6-chloro-8-fluoro-7-(2-fluorophenyl)quinoline-3-carbonitrile] was “++++ (++++indicates binding activity greater than 75%)”; that for `C=CC(=O)N1CCN(c2ncnc3c(F)c(-c4ccccc4C(F)(F)F)c(Cl)cc23)CC1CC#N` (stereo not shown) [Compound I-243, 2-(1-acryloyl-4-(6-chloro-8-fluoro-7-(2-(trifluoromethyl)phenyl)quinazolin-4-yl)piperazin-2-yl)acetonitrile] was “++++ (++++indicates binding activity greater than 75%)”. Consider `C=CC(=O)N1CCN(c2ncnc3cc(-c4nn(C)c5ccccc45)c(Cl)cc23)CC1` [Compound I-226, 1-(4-(6-chloro-7-(1-methyl-1H-indazol-3-yl)quinazolin-4-yl)piperazin-1-yl)prop-2-en-1-one], for which the Binding % result under setting [2] is reported as “+ (+indicates binding activity from 5% to 25%)”. Regarding `C=CC(=O)N1CCN(c2ncnc3c(F)c(-c4c(C)ccc5cn[nH]c45)c(F)cc23)CC1` [Compound 298, 1-(4-(6,8-difluoro-7-(6-methyl-1H-indazol-7-yl)-quinazolin-4-yl)piperazin-1-yl)prop-2-en-1-one], under setting [3], the Binding % result is “++ (++indicates binding activity greater than 25% and up to 50%)”. For `C=CC(=O)N1CCN(c2ncnc3cc(-c4c(F)cccc4F)c(Cl)cc23)CC1` [Compound I-132, 1-(4-(6-chloro-7-(2,6-difluorophenyl)quinazolin-4-yl)piperazin-1-yl)prop-2-en-1-one], the Binding % entry under setting [2] was “+++ (+++indicates binding activity greater than 50% and up to 75%)”. Same read-out and setting: the value for `C=CC(=O)N1CCN(c2ncnc3c(F)c(-c4cc(O)ccc4Cl)c(Cl)cc23)CC1` [Compound I-217, 1-(4-(6-chloro-7-(2-chloro-5-hydroxyphenyl)-8-fluoroquinazolin-4-yl)piperazin-1-yl)prop-2-en-1-one] was “+++ (+++indicates binding activity greater than 50% and up to 75%)”.

Consider `C=CC(=O)N1CCN(c2ncnc3c(F)c(-c4c(F)ccc5[nH]ncc45)c(Cl)cc23)CC1` [Compound 331, 1-(4-(6-chloro-8-fluoro-7-(5-fluoro-1H-indazol-4-yl)quinazolin-4-yl)piperazin-1-yl)prop-2-en-1-one], for which the Binding % result under setting [3] is “++ (++indicates binding activity greater than 25% and up to 50%)”. Take `C=CC(=O)N1CC(N2CCN(C(=O)CNc3cc(Cl)c(Cl)cc3O)CC2)C1` [Example 38, 1-(3-(4-(2-(4,5-dichloro-2-hydroxyphenylamino)acetyl)piperazin-1-yl)azetidin-1-yl)prop-2-en-1-one]: under setting [1], the Binding % result was “++ (++indicates binding activity greater than 25% and up to 50%)”.

On to `C=CC(=O)N1CCN(c2ncnc3cc(Cl)c(-c4ccc(Cl)cc4)cc23)CC1C(N)=O` (stereo not shown) [Compound I-44, 1-acryloyl-4-(7-chloro-6-(4-chlorophenyl)quinazolin-4-yl)piperazin-2-carboxamide], for which the Binding % entry under setting [1] is “+++ (+++indicates binding activity greater than 50% and up to 75%)”. As for `C=CC(=O)N1CCN(c2ncnc3cc(-c4ccccc4C(F)(F)F)ccc23)CC1` [Compound I-157, 1-(4-(7-(2-(trifluoromethyl)phenyl)quinazolin-4-yl)piperazin-1-yl)prop-2-en-1-one], under setting [2], the Binding % result is “+ (+indicates binding activity from 5% to 25%)”. For the compound `C=CC(=O)N1CCN(c2ncnc3cc(-c4ccccc4F)c(O)cc23)CC1` [Compound I-163, 1-(4-(7-(2-fluorophenyl)-6-hydroxyquinazolin-4-yl)piperazin-1-yl)prop-2-en-1-one], under setting [2], the Binding % result is reported as “+ (+indicates binding activity from 5% to 25%)”. Still for that read-out and setting: under `C=CC(=O)N1CCN(c2ncnc3cc(-c4ccccc4OC)c(Cl)cc23)CC1` [Compound I-97, 1-(4-(6-chloro-7-(2-methoxyphenyl)quinazolin-4-yl)piperazin-1-yl)prop-2-en-1-one] stands “++ (++indicates binding activity greater than 25% and up to 50%)”. For the compound `C=CC(=O)N1CCN(c2ncnc3c(F)c(-c4ccc(F)cc4F)c(F)cc23)CC1` [Compound 296], the Binding % entry under setting [3] is “+ (+indicates binding activity from 5% to 25%)”. Turning to `C=CS(=O)(=O)N1CCC(N2CCN(C(=O)CNc3cc(Cl)c(Cl)cc3O)CC2)C1` (stereo not shown) [II-41, 2-(4,5-dichloro-2-hydroxyphenylamino)-1-(4-(1-(vinylsulfonyl)-pyrrolidin-3-yl)piperazin-1-yl)ethanone], the Binding % result (determined at 24 hrs) is “++++ (++++indicates binding activity greater than 50%)”. For the compound `C=CC(=O)N1CCN(c2ncnc3cc(Cl)c(N4CCOCC4)cc23)CC1` [Compound I-32, 1-(4-(7-chloro-6-morpholinoquinazolin-4-yl)piperazin-1-yl)prop-2-en-1-one], the Binding % result under setting [1] is on record as “+ (+indicates binding activity from 5% to 25%)”. With `C=CC(=O)N1CCN(c2ncnc3cc(C4CC4)c(Cl)cc23)CC1` [Compound I-68, 1-(4-(6-chloro-7-cyclopropylquinazolin-4-yl)piperazin-1-yl)prop-2-en-1-one], the Binding % entry under setting [2] is reported as “+ (+indicates binding activity from 5% to 25%)”.

For the compound `C=CC(=O)N1CCN(c2ncnc3cc(Cl)c(-c4ccc(Cl)cc4O)cc23)CC1` [Compound I-11, 1-(4-(7-chloro-6-(4-chloro-2-hydroxyphenyl)quinoazlin-4-yl)piperazin-1-yl)prop-2-en-1-one], the Binding % entry under setting [1] is “++++ (++++indicates binding activity greater than 75%)”.

On to `C=CC(=O)N1CC(N2CCN(C(=O)C3CCCN3c3cc(C4CC4)c(Cl)cc3OC)CC2)C1` (stereo not shown) [II-73, 1-(3-(4-(1-(4-chloro-5-cyclopropyl-2-methoxyphenyl)-pyrrolidine-2-carbonyl)piperazin-1-yl)azetidin-1-yl)prop-2-en-1-one], for which the Binding % entry (determined at 2 hrs) is recorded as “+ (+indicates binding activity from 5% to 20%)”. In the case of `C=CC(=O)N1CCN(c2ncnc3c(F)c(-c4ccccc4F)c(C(F)(F)F)cc23)CC1` [Compound I-271], the Binding % result under setting [3] was “+++ (+++indicates binding activity greater than 50% and up to 75%)”.

For `C=CC(=O)N1CCN(c2ncnc3cc(-c4c(OC)ccc5[nH]ncc45)c(Cl)cc23)CC1` [Compound I-244, 1-(4-(6-chloro-7-(5-methoxy-1H-indazol-4-yl)quinazolin-4-yl)piperazin-1-yl)prop-2-en-1-one], under setting [2], the Binding % result is listed as “+ (+indicates binding activity from 5% to 25%)”. The same measure, in the same setting: the value for `C=CC(=O)N1CCN(c2ncnc3cc(-c4ccccc4C4CC4)c(Cl)cc23)CC1` [Compound I-126, 1-(4-(6-chloro-7-(2-cyclopropylphenyl)quinazolin-4-yl)piperazin-1-yl)prop-2-en-1-one] was “++++ (++++indicates binding activity greater than 75%)”.

Values taken from patent US10111874B2, “Combination therapies for treatment of cancer” (Araxes Pharma LLC, priority 2014, dated 2018).
